# Laboratory results reported in patent US20100173912A1, “Novel Compound” (priority 2007, published 2010).
# Target: T1, human mGluR5b (Homo sapiens, UniProt P41594)
# T1 construct: expressed in transfected cells; host or cells: CHO cells, pSwitch vector (Invitrogen), expression induced with mifepristone
# Assay: FLIPR positive modulator assay in CHO cells expressing human mGluR5b
# Type: cell-based
# Conditions: FLIPR second read after EC20 glutamate, normalised to EC20 (basal) and EC100 (total) glutamate response, read-out: pEC50 in the human mGluR5b positive modulator assay (converted)
# Experimental: CHO cells expressing human mGluR5b (pSwitch vector, Invitrogen) were maintained in DMEM media with 10% Foetal Calf Serum, 0.005% Hygromycin, Proline(10 mg/mL), Zeocin(0.005%). The media was replaced between subculturing days to remove any excess glutamate build up that may cause receptor desensitization. 24 hrs prior to conducting the assay, cells were plated in 384-well black flat clear bottom plates and mGluR5 expression was induced with the addition of 0.01 nM mifepristone. The plates were incubated at 37° C. to give a monolayer with a confluency of 80%.
# The tissue culture medium was aspirated using a Tecan power washer. Cells were loaded with 30 μl of Hanks Balanced Salts (HBSS)+[…]+2 μM Fluo-4+250 μM Brilliant Black+0.01% Pluronic acid. The cells were incubated at 37° C. for 2 hours to allow uptake of the dye Fluo-4AM into the cell cytosol, which was converted to Fluo-4 by natural esterases cleaving the AM region preventing the Fluo-4 leaving the cell. […]
# A 0.38 M solution of glutamic acid was prepared in water. […] A fluorescent reading was made. […] A second fluorescent read was made. […]
# The compound was added ‘on line’ to the cells and a first FLIPR read was made to estimate agonism. The cell plates were then incubated at 37° C. for 5-10 min after which the chosen EC20 Glutamate was added ‘on line’ and a second FLIPR reading made to estimate modulation. […]
# T1 sequence (P41594 21-1212): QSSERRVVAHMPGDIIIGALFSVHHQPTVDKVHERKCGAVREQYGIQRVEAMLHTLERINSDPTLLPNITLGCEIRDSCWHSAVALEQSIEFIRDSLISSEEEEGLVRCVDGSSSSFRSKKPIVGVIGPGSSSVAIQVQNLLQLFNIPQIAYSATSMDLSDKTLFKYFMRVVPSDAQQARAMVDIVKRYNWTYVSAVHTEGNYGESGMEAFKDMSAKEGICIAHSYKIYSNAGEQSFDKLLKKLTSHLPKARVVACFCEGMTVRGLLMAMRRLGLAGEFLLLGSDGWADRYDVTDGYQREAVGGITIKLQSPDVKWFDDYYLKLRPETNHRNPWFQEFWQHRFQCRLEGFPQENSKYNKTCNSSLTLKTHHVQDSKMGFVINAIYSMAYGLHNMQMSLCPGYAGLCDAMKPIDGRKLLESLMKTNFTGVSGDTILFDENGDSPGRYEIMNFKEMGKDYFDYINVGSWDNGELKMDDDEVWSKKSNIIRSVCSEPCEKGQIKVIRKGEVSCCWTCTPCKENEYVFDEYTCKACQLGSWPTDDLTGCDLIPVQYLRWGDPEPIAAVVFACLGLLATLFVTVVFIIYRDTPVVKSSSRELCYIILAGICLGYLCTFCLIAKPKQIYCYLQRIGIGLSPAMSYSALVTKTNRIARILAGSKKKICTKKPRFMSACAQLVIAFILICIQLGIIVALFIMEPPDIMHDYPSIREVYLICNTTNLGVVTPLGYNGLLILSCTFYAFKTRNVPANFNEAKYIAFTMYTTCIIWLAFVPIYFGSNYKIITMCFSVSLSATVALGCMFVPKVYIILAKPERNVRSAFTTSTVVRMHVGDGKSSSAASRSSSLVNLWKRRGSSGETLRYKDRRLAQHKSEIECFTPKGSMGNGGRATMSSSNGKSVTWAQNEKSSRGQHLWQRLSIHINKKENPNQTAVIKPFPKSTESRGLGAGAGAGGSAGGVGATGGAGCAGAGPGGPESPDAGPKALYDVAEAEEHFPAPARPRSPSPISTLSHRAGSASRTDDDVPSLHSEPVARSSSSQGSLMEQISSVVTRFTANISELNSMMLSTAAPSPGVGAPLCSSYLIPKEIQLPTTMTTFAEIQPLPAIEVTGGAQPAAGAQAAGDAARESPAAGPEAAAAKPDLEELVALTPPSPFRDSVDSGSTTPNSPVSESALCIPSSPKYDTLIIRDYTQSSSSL
smiles,measurement,value
N#Cc1cc(F)ccc1N1CCN(C(=O)COCc2ccc(F)cc2)CC1 [5-fluoro-2-[4-({[(4-fluorophenyl)methyl]oxy}acetyl)-1-piperazinyl]benzonitrile],EC50,< 1000 nM
